In ChEMBL document CHEMBL1156554, “Aminoquinazolines as TRPV1 antagonists: modulation of drug-like properties through the exploration of 2-position substitution” (Bioorg Med Chem Lett, 2008):

Columns and labels:
[1] = Cmax in rat at 2.0 mg/kg, po dosed in 0.5% methylcellulose, 0.1% triacetin; assay type: ADME, organism-based; parameters: dose 2 mg/kg, route oral; conditions: in vivo
[2] = AUC (0 to infinity) in rat at 2.0 mg/kg, po dosed in 0.5% methylcellulose, 0.1% triacetin; assay type: ADME, organism-based; parameters: time infinity, dose 2 mg/kg, route oral; conditions: in vivo
[3] = Tmax in rat at 2.0 mg/kg, po dosed in 0.5% methylcellulose, 0.1% triacetin; assay type: ADME, organism-based; parameters: dose 2 mg/kg, route oral; conditions: in vivo
Liver microsomes [4] = test: Metabolic stability in human liver microsomes at 1 uM; assay type: ADME, Microsome
[5] = Half life in rat at […], iv dosed in 50% PEG-400/water; assay type: ADME, organism-based; parameters: dose 1.5 mg/kg, route intravenous; conditions: in vivo
Liver microsomes [6] = test: Metabolic stability in rat liver microsomes at 1 uM; assay type: ADME, Microsome
[7] = Dissociation constant, pKa of the compound; assay type: physicochemical
[8] = Clearance in rat at […], iv dosed in 50% PEG-400/water; assay type: ADME, organism-based; parameters: dose 1.5 mg/kg, route intravenous; conditions: in vivo
[9] = Chemical stability in 0.1 N HCl after 4 hrs; assay type: physicochemical; conditions: read-out: Activity
[10] = Bioavailability in rat at 2.0 mg/kg, po dosed in 0.5% methylcellulose, 0.1% triacetin; assay type: ADME, organism-based; conditions: in vivo
[11] = Volume of distribution at steady state in rat at […], iv dosed in 50% PEG-400/water; assay type: ADME, organism-based; parameters: dose 1.5 mg/kg, route intravenous; conditions: in vivo, read-out: Vdss
[12] = Half life in rat at 2.7 mg/kg, iv dosed in 50% PEG-400/water; assay type: ADME, organism-based; parameters: dose 2.7 mg/kg, route intravenous; conditions: in vivo
[13] = Volume of distribution at steady state in rat at 2.7 mg/kg, iv dosed in 50% PEG-400/water; assay type: ADME, organism-based; parameters: dose 2.7 mg/kg, route intravenous; conditions: in vivo, read-out: Vdss
Rattus norvegicus = test: (§1) Bioavailability in rat at 2.0 mg/kg, po dosed in 2% D-alpha-tocopheryl polyethylene glycol 1000 succinate; assay type: ADME, organism-based; conditions: in vivo
[14] = Clearance in rat at 2.7 mg/kg, iv dosed in 50% PEG-400/water; assay type: ADME, organism-based; parameters: dose 2.7 mg/kg, route intravenous; conditions: in vivo
[15] = AUC (0 to infinity) in rat at 2.0 mg/kg, po dosed in 2% D-alpha-tocopheryl polyethylene glycol 1000 succinate; assay type: ADME, organism-based; parameters: dose 2 mg/kg, route oral, time infinity; conditions: plasma
[16] = Tmax in rat at 2.0 mg/kg, po dosed in 2% D-alpha-tocopheryl polyethylene glycol 1000 succinate; assay type: ADME, organism-based; parameters: dose 2 mg/kg, route oral; conditions: in vivo
[17] = Cmax in rat at 2.0 mg/kg, po dosed in 2% D-alpha-tocopheryl polyethylene glycol 1000 succinate; assay type: ADME, organism-based; parameters: dose 2 mg/kg, route oral; conditions: in vivo
[18] = as §1; assay type: ADME, organism-based; conditions: in vivo
[19] = Tmax in rat at […], po dosed in 0.5% methylcellulose, 0.1% triacetin; assay type: ADME, organism-based; parameters: dose 2.1 mg/kg, route oral; conditions: in vivo
[20] = Bioavailability in rat at […], po dosed in 0.5% methylcellulose, 0.1% triacetin; assay type: ADME, organism-based; conditions: in vivo
[21] = Cmax in rat at […], po dosed in 0.5% methylcellulose, 0.1% triacetin; assay type: ADME, organism-based; parameters: dose 2.1 mg/kg, route oral; conditions: in vivo
[22] = AUC (0 to infinity) in rat at […], po dosed in 0.5% methylcellulose, 0.1% triacetin; assay type: ADME, organism-based; parameters: time infinity, dose 2.1 mg/kg, route oral; conditions: in vivo
[23] = Ratio of drug level in brain to plasma in rat at 3 mg/kg, po after 4 hrs; assay type: ADME, organism-based; parameters: dose 3 mg/kg, route oral
[24] = Volume of distribution at steady state in rat at 1.0 mg/kg, iv dosed in 50% PEG-400/water; assay type: ADME, organism-based; parameters: dose 1 mg/kg, route intravenous; conditions: in vivo, read-out: Vdss
[25] = Clearance in rat at 1.0 mg/kg, iv dosed in 50% PEG-400/water; assay type: ADME, organism-based; parameters: dose 1 mg/kg, route intravenous; conditions: in vivo
[26] = Half life in rat at 1.0 mg/kg, iv dosed in 50% PEG-400/water; assay type: ADME, organism-based; parameters: dose 1 mg/kg, route intravenous; conditions: in vivo

| Cmax [1] [ng/mL] | AUC(0-inf) [2] [ng·h/mL] | Tmax [3] [h] | Stability (Liver microsomes [4]) | Stability (Liver microsomes [6]) | pKa [7] | SMILES | also measured |
| --- | --- | --- | --- | --- | --- | --- | --- |
| 93 | 218 | 0.9 |  |  |  | C[C@@H]1CN(Cc2nc(Nc3ccc(C(F)(F)F)nc3)c3ccc(-c4ncccc4C(F)(F)F)cc3n2)C[C@H](C)O1 |  |
| 137 | 7620 | 5.7 | Stable | Stable | 3.26 | FC(F)(F)c1ccc(Nc2ncnc3cc(-c4ncccc4C(F)(F)F)ccc23)nc1 | half-life [5]: 38 h; clearance [8]: 4.2 mL/min/kg; remaining at 4 h [9]: 57%; bioavailability [10]: 89%; Vd [11]: 12 L/kg |
|  |  |  |  |  | 7.51 | CC1CN(Cc2nc(Nc3ccc(C(F)(F)F)cc3)c3ccc(-c4ncccc4C(F)(F)F)cc3n2)CC(C)O1 (stereo not drawn) |  |
|  |  |  |  |  | 7.86 | FC(F)(F)c1ccc(Nc2nc(CCCN3CCOCC3)nc3cc(-c4ncccc4C(F)(F)F)ccc23)cc1 |  |
|  |  |  | Stable | Stable |  | CC(C)OCc1nc(Nc2ccc(C(F)(F)F)nc2)c2ccc(-c3ncccc3C(F)(F)F)cc2n1 |  |
| 13 | 121 | 3 |  |  | 4.54 | FC(F)(F)c1ccc(Nc2ncnc3cc(-c4ncccc4C(F)(F)F)ccc23)cc1 [NGD-8243] | half-life [12]: 8 h; Vd [13]: 13 L/kg; F (Rattus norvegicus): 99%; clearance [14]: 23 mL/min/kg; AUC(0-inf) [15]: 1430 ng·h/mL; Tmax [16]: 0.67 h; bioavailability [10]: 8%; Cmax [17]: 101 ng/mL |
|  |  |  | Stable | Stable |  | FC(F)(F)c1ccc(Nc2nc(CN3CCOCC3)nc3cc(-c4ncccc4C(F)(F)F)ccc23)nc1 |  |
|  |  |  | Stable | Stable |  | CCOCc1nc(Nc2ccc(C(F)(F)F)nc2)c2ccc(-c3ncccc3C(F)(F)F)cc2n1 |  |
|  |  |  | Stable | Stable | 3.48 | FC(F)(F)c1ccc(Nc2ncnc3cc(-c4ncccc4C(F)(F)F)ccc23)cn1 | bioavailability [18]: 94%; Tmax [19]: 1.8 h; bioavailability [20]: 61%; Cmax [21]: 137 ng/mL; half-life [5]: 4.2 h; AUC(0-inf) [22]: 982 ng·h/mL; clearance [8]: 22 mL/min/kg; AUC(0-inf) [15]: 1450 ng·h/mL; Tmax [16]: 1.7 h; Cmax [17]: 211 ng/mL; Vd [11]: 5.5 L/kg |
| 215 | 3250 | 3.7 |  |  | 3.7 | COCc1nc(Nc2ccc(C(F)(F)F)cc2)c2ccc(-c3ncccc3C(F)(F)F)cc2n1 | Kp at 4 h [23]: 1.8; Vd [24]: 3.5 L/kg; clearance [25]: 5.3 mL/min/kg; half-life [26]: 6.9 h; bioavailability [10]: 50% |
|  |  |  |  |  | 7.68 | CN1CCN(Cc2nc(Nc3ccc(C(F)(F)F)cc3)c3ccc(-c4ncccc4C(F)(F)F)cc3n2)CC1 |  |
